Data on four molecules can be found in patent publication US11680047B2, “Enhanced erythropoiesis and iron metabolism” (FibroGen, Inc., priority 2003, dated 2023).

For assay [1], the system named is E-selectin. Nature of the assay: Cell surface E-selectin (cell-based ELISA) in HUVEC pretreated with compound, then cytokines. Further details: species or system human. The note with it: HUVEC pretreated 24 hours. The procedure: HUVEC were treated with vehicle control or various concentrations of compound B or compound C for 24 hours. Cells were washed and then stimulated with either 1 ng/ml TNF-α, 1 ng/ml IL-1β, or a combination of 1 ng/ml each of TNF-α, IL-1β, and IFN-γ for 4 hours. Cell surface expression of E-selectin was measured by cell-based ELISA.
A general note: In an ELISA, binding on a coated surface is turned into a signal by an enzyme label.

For assay [2], the system named is E-selectin. Description: IL-1β induced E-selectin expression in HUVEC. Format: cell-based, human. The note with it: 1 ng/ml IL-1β, 1 day. The procedure: To investigate the effect of HIF prolyl hydroxylase inhibition on IL-1β induced E-selectin expression, HUVECs were stimulated with 1 ng/ml IL-1β in the absence or presence of various concentrations of compound B or compound C for 1 day. E-selectin expression was then measured.

The test system of assay [3] is E-selectin. Nature of the assay: TNF-α induced E-selectin expression in HUVEC. Format: cell-based, human. Conditions: 1 ng/ml TNF-α, various concentrations, 1 day. An excerpt: (§1) Endothelial E-selectin belongs to the selectin family of cellular adhesion molecules mediating the initial attachment of leukocytes to vascular endothelial cells in inflammatory events. IL-1β, TNF-α, and lipopolysaccharides each induce the expression of E-selectin. (See, e.g., Bevilacqua et al. (1987) Proc Natl Acad Sci USA 84:9238-9242 and Bevilacqua and van Furth (1993) J Leukoc Biol 54:363-378.) To investigate the effect of HIF prolyl hydroxylase inhibition on TNF-α induced E-selectin expression, HUVECs were stimulated with 1 ng/ml TNF-α in the absence or presence of various concentrations of compound B or compound C for 1 day. E-selectin and VCAM expression were then measured.

For assay [4], the system named is VCAM-1. Nature of the assay: IL-1β induced VCAM-1 expression in HUVEC. Format: cell-based, human. The note with it: IL-1β 1 ng/ml, 1 day. The procedure: To investigate the effect of HIF prolyl hydroxylase inhibition on IL-1β induced VCAM-1 expression, HUVEC (human umbilical vein endothelial cells) were stimulated with IL-1β in the absence or presence of various concentrations of compound B or compound C for 1 day. VCAM expression was then measured.

The subject of assay [5] is VCAM-1. Description: TNF-α induced VCAM-1 expression in HUVEC. The note with it: TNF-α 1 ng/ml, 1 day. Format: cell-based, human.
Excerpt: Endothelial cell adhesiveness for lymphocytes occurs, in part, by endothelial cell expression of vascular cell adhesion molecule (VCAM)-1. VCAM-1 expression in endothelial cells is induced by various inflammatory cytokines, such as TNF-α. To investigate the effect of HIF prolyl hydroxylase inhibition on TNF-α induced VCAM-1 expression, HUVEC (human umbilical vein endothelial cells) were stimulated with TNF-α in the absence or presence of various concentrations of compound B or compound C for 1 day. VCAM expression was then measured.
as §1

The subject of the next assay is NRAMP2. Nature of the assay: NRAMP2 mRNA in small intestine of mice after IV administration (microarray). Format: in vivo, mouse. The note with it: 60 mg/kg IV, 4 hours. The procedure: In another experiment, mRNA was isolated from small intestine harvested 4 hours following IV administration of 60 mg/kg compound A, compound B, and compound C to mice. Probes were prepared from each of two animals from 5 treatment groups, and hybridized to Affymetrix mouse MOE430Aplus2 microarrays (one animal per array). Statistical comparisons of data obtained from arrays from treated versus non-treated animals was performed. […] Expression levels are shown as fold-induction over control, untreated animals for each expressed gene.

A further assay deals with Ceruloplasmin (CP). Nature of the assay: Microarray gene expression in Hep3B cells: ceruloplasmin. The note with it: 2 μM, 6 hr. Format: cell-based, human. The protocol: Hep3B cells (ATCC No. HB-8064) were grown in DMEM containing 8% fetal bovine serum. Hep3B cells were seeded into 6-well culture dishes at ˜500,000 cells per well. After 8 hours, the media was changed to DMEM containing 0.5% fetal bovine serum and the cells were incubated for an additional 16 hours. Compound B or compound D was added to the cells (2 μM final concentration) and the cells were incubated for various times. Control cells (no compound treatment, addition of DMSO alone) were harvested at 0, 6 and 48 hours. Harvested cells were assessed for cell viability (GUAVA), or added to RNA extraction buffer (RNeasy, Qiagen) and stored at −20° C. for subsequent RNA purification. Replicate microarrays were generated using RNA isolated from replicate experiments conducted on different days. Total RNA was isolated from cells using the RNeasy kit (Qiagen).
RNA was precipitated in 0.3 M sodium acetate (pH 5.2), 50 ng/ml glycogen, and 2.5 volumes of ethanol for one hour at −20° C. Samples were centrifuged and pellets were washed with cold 80% ethanol, dried, and resuspend in water. Double stranded cDNA was synthesized using a T7-(dT)24 first strand primer (Affymetrix, Inc., Santa Clara Calif.) and the SUPERSCRIPT CHOICE system (Invitrogen) according to the manufacturer's instructions. The final cDNA was extracted with an equal volume of 25:24:1 phenol:chloroform:isoamyl alcohol using a PHASE LOCK GEL insert (Brinkman, Inc., Westbury N.Y.). The aqueous phase was collected and cDNA was precipitated using 0.5 volumes of 7.5 M ammonium acetate and 2.5 volumes of ethanol. Alternatively, cDNA was purified using the GENECHIP sample cleanup module (Affymetrix) according to the manufacturer's instructions.
Biotin-labeled cRNA was synthesized from the cDNA in an in vitro […] (IVT) reaction using a BIOARRAY HighYield RNA transcript labeling kit (Enzo Diagnostics, Inc., Farmingdale N.Y.) according to the manufacturer's instructions. Final labeled product was purified and fragmented using the GENECHIP sample cleanup module (Affymetrix) according to the manufacturer's instructions.
Hybridization cocktail was prepared by bringing […] probe to […] in 1× hybridization buffer (100 mM MES, 1 M [Na^+], 20 mM EDTA, 0.01% Tween 20), 100 µg/ml herring sperm DNA, 500 µg/ml acetylated BSA, 0.03 nM contol oligo B2 (Affymetrix), and 1×GENECHIP eukaryotic hybridization control (Affymetrix). The cocktail was sequentially incubated at 99° C. for 5 minutes and 45° C. for 5 minutes, and then centrifuged for 5 minutes. The Human Genome U133A array (Affymetrix) was brought to room temperature and then prehybridized with 1× hybridization buffer at 45° C. for 10 minutes with rotation. The buffer was then replaced with […] hybridization cocktail and the array was hybridized for 16 hours at 45° C. at 60 rpm with counter balance. Following hybridization, arrays were washed once with 6×SSPE, 0.1% Tween 20, and then washed and stained using R-phycoerythrin-conjugated streptavidin (Molecular Probes, Eugene Oreg.), goat anti-streptavidin antibody (Vector Laboratories, Burlingame Calif.), and a GENECHIP Fluidics Station 400 instrument (Affymetrix) according to the manufacturer's micro_1v1 protocol (Affymetrix). Arrays were analyzed using a GENEARRAY scanner (Affymetrix) and Microarray Suite software (Affymetrix).
The Human Genome U133A array (Affymetrix) represents all sequences in the Human Unigene database build 133 (National Center for Biotechnology Information, Bethesda Md.), including approximately 14,500 well-characterized human genes.
RNA quality was monitored by capillary electrophoresis (Agilent Bioanalyzer). Hybridization cocktails were prepared as described (Affymetrix), and hybridized to Affymetrix human U133A arrays containing 22,283 probe sets. Array performance was analyzed with Affymetrix MicroArray Suite (MAS) software and individual probe sets were assigned “present”, “marginal, and “absent” calls according to software defaults. […]

The subject of assay [6] is erythropoietin-resistant anemia. Conditions: Salvarani et al. (1996); Goch et al. (1995); cited from earlier work.
For the next assay, the system named is EPO production. Description: Secreted EPO (ELISA) in Hep3B cells treated with IL-6. Format: cell-based. Conditions: 10 ng/ml IL-6, absence of compound. The protocol:
Secreted EPO levels were determined using a commercially available ELISA kit (R&D Systems, catalog no. DEP00). […] As shown in FIGS. 27A and 27B, Hep3B cells treated with IL-6 increased EPO expression slightly above that in non-treated cells. Specifically, EPO levels in control cells was approximately 20 mIU/ml, while that in cells treated with 10 ng/ml IL-6 was approximately 50 mIU/ml.

Turning to `O=C(O)CNC(=O)c1ncc2cc(Sc3ccccc3)ccc2c1O` [C, [(4-Hydroxy-7-phenylsulfanyl-isoquinoline-3-carbonyl)-amino]-acetic acid], the “induction of cell surface E-selectin expression” value in the assay with E-selectin [1] (then 1 ng/ml TNF-α or 1 ng/ml IL-1β for 4 hours) is listed as “inhibited the induction of cell surface E-selectin expression”. The “cell surface E-selectin expression” value with E-selectin [1] (then TNF-α, IL-1β and IFN-γ, 1 ng/ml each, 4 hours) was “decreased E-selectin expression”. The “inhibition of IL-1β induced E-selectin expression” value in the assay on E-selectin [2] is recorded as “dose-dependent inhibition of IL-1β induced E-selectin expression”. The “inhibition of TNF-α induced E-selectin expression” value in the assay on E-selectin [3] is “dose-dependent inhibition of TNF-α induced VCAM and E-selectin expression”. Besides, the “inhibition of IL-1β induced VCAM-1 expression” value in the assay on VCAM-1 [4] was “does-dependent inhibition of IL-1β induced VCAM-1 expression”. For the same molecule, the “inhibition of TNF-α induced VCAM-1 expression” value with VCAM-1 [5] was “does-dependent inhibition of TNF-α induced VCAM-1 expression”. In the assay with NRAMP2, the “NRAMP2 mRNA expression in small intestine” value is reported as “increasing expression of NRAMP2 in intestine”.
For the molecule `COc1ccc(CCN(CCC(=O)NO)S(=O)(=O)c2ccc(NC(=O)N(Cc3ccccc3)Cc3ccccc3)cc2)cc1` [Compound D, 3-{[4-(3,3-Dibenzyl-ureido)-benzenesulfonyl]-[2-(4-methoxy-phenyl)-ethyl]-amino}-N-hydroxy-propionamide], in the assay with Ceruloplasmin (CP), the “Ceruloplasmin (CP) fold-increase in mRNA levels above control, first data point” value was 2.06 fold and the “Ceruloplasmin (CP) fold-increase in mRNA levels above control, second data point” value stood at 2.387 fold.
Consider `CC(=O)N(O)CCCCCNC(=O)CCC(=O)N(O)CCCCCNC(=O)CCC(=O)N(O)CCCCCN` [desferrioxamine], for which, in assay [6], the “efficacy in erythropoietin-resistant anemia, e.g., anemia of chronic disease” value is listed as “some efficacy”.
Consider “IL-6: cytokine added to Hep3B cells, alone or with compound A or compound B [reference compound]”, for which the EPO levels result in the assay on EPO production is “approximately 50 mIU/ml”.
